Experimental findings from patent US6008230A, “Quinoline compounds as H^+ -ATPases” (Fujisawa Pharmaceutical Co., Ltd., priority 1995, dated 1999) are described below.

The test system of assay [1] is PTH-induced bone resorption (calvariae from Wistar rats). As to the kind of experiment: Bone organ culture: inhibition of PTH-induced bone resorption. The format is cell-based. As to conditions: 144 h; Wistar rat calvariae; 10^-8 M human PTH (1-34); concentration 1×10^-6 M; six days. As to the method:
Test 2 (Bone organ culture) Test Method […] In control dishes, PTH was not added. Control and PTH control were exposed to an equivalent concentration of the vehicle. Six days later, the concentration of calcium ((Ca]) in the medium was measured by methylxylenol blue method and the percentage of inhibition of PTH-induced bone resorption was calculated according to following formula [formula] Cp: [Ca] in PTH control dishes CD: [Ca] in the test compound dishes C0 : [Ca] in control dishes

The subject of assay [2] is vacuolar type H^+ -ATPase. As to the kind of experiment: Inhibition of vacuolar type H^+ -ATPase proton transport. The assay is classed as biochemical. As to conditions: microsomes from mouse peritoneal macrophages; acridine orange uptake; concentration 1×10^-6 M; pH 7.0. As to the method: Test 1 (Inhibition of vacuolar type H^+ -ATPase proton transport): Test Method (a) Preparation of microsomes from mouse peritoneal macrophages Seven-week-old male ddY mice were injected intraperitoneally with 2 ml of 3% thioglycolate medium. After 3-5 days, the mice were decapitated, and the peritoneal macrophages were obtained by peritoneal lavage with 5-6 ml of Hanks' balanced salt solution (HBSS). The cells were washed twice with cold HBSS. Vesicles were prepared from the cells, homogenized in a Douncee homogenizer (20 strokes) in 10 ml of 250 mM sucrose, 5 mM Tris, 1 mM EGTA, 1 mM KHCO3 and 1 mM dithiothreitol, pH 7.0, at 4° C. After an initial centrifugation (1000× g for 5 minutes), the supernatant was centrifuged 6000× g for 15 minutes) to remove mitochondria and lysosomes. The supernatant was centrifuged at 42000× g for 30 minutes, and microsomal pellet was collected and stored at -80° C. (b) Measurement of proton transport Proton transport was assayed with a dual-wavelength spectrophotometer by monitering uptake of acridine orange (Reference 540 nm, Measurement 492 nm) [H. C. Blair, J. Cell. Biol., 102, 1164 (1986)] with aliquot of membrane vesicles suspended in […] of assay buffer containing 150 mM KCl, 10 mM bis-tris-propane, 2 mM MgCl2, […], […] oligomycin and test compounds (concentration: 1×10^-6 M), pH 7.0. The reaction was initiated by addition of 1 mM ATP. Results were expressed as the percent of control.

The structures appear in SMILES notation. Where a name gives a salt, the structure may show the parent alone.

As a reminder, the inhibition is the relative decrease from the control value, in per cent. Higher therefore signals strong suppression. Compound `C=CCc1cnc2c(NC(=O)c3c(Cl)cccc3Cl)cccc2c1Sc1ncc[nH]1` [28 (dihydrochloride), 8-(2,6-Dichlorobenzoylamino)-4-(imidazol-2-ylthio)-3-allylquinoline] gave an inhibition at 1 µM in assay [1] of 100%. Moreover, the “Inhibition (%) of vacuolar type H^+ -ATPase proton transport” value (“Inhibition (%) of vacuolar type H^+” for short) in assay [2] worked out at 94%.
For `Cl.N#Cc1cnc2c(NC(=O)c3c(Cl)cccc3Cl)cccc2c1Cn1ccnc1` [52 (hydrochloride), 3-cyano-8-(2,6-dichlorobenzoylamino)-4-(imidazol-1-ylmethyl)quinoline hydrochloride], the inhibition at 1 µM in assay [1] worked out at 100%. The “Inhibition (%) of vacuolar type H^+” value in assay [2] is recorded as 100%.
As for `C=Cc1cnc2c(NC(=O)c3c(Cl)cccc3Cl)cccc2c1CC(=O)NCc1ccccn1` [71-(2), 8-(2,6-dichlorobenzoylamino)-4-[(pyridin-2-ylmethyl)carbamoylmethyl]-3-vinylquinoline], 1 µM produced 100% inhibition in assay [1]. The “Inhibition (%) of vacuolar type H^+” value in assay [2] came out at 93%.
The matching figures for `O=C(Nc1cccc2c(-n3cccn3)ccnc12)c1c(Cl)cccc1Cl` [85-(2) (free), 8-(2,6-Dichlorobenzoylamino)-4-(pyrazol-1-yl)quinoline]: 100% and 97%.
Taken in the same sequence, the figures for `C#Cc1cnc2c(NC(=O)c3c(Cl)cccc3Cl)cccc2c1` [Example 5, 8-(2,6-dichlorobenzoylamino)-3-ethynylquinoline] were 98% and 100%.
